Common to all, as to assay type: in vivo
Experiment [1] concerns Puccinia recondita tritici. Kind of experiment: Leaf Rust of Wheat (PUCCRT) whole-plant disease control test. The note with it: Puccinia recondita, foliar; for pest or weed control at 200 ppm: 200 ppm applied to foliage of wheat, inoculated one day after treatment, read-out: PUCCRT disease control.
For experiment [2], the system named is Mycosphaerella graminicola=Septoria tritici. Kind of experiment: Speckled Leaf Blotch of Wheat (SEPTTR) whole-plant disease control test. The note with it: Mycosphaerella, foliar, 75 ppm applied to foliage of wheat; read-out: SEPTTR disease control.
Experiment [3] deals with Erysiphe cichoracaerum. Kind of experiment: Cucumber Powdery Mildew (ERYSCI) whole-plant disease control test. The note with it: Erysiphe, foliar; for pest or weed control at 200 ppm: 200 ppm applied to foliage of cucumber, inoculated one day after treatment, read-out: ERYSCI disease control.
Experiment [4] deals with Magnaporthe grisea=Pyricularia oryzae. Kind of experiment: whole plant or invertebrate. Conditions: Pyricularia oryzae, foliar; for pest or weed control at 200 ppm: read-out: PYRIOR disease control, 200 ppm applied to foliage of rice, inoculated one day after treatment.
Experiment [5] deals with Colletotricum lagenarium. Kind of experiment: Cucumber Anthracnose (COLLLA) whole-plant disease control test. The note with it: Cucumis sativus, foliar; for pest or weed control at 200 ppm: 200 ppm applied to foliage of cucumber, inoculated one day after treatment, read-out: COLLLA disease control.
For experiment [6], the system named is Leptosphaeria nodorum. Kind of experiment: Glume Blotch of Wheat (LEPTNO) whole-plant disease control test. The note with it: Parastagonospora nodorum, foliar; for pest or weed control at 200 ppm: 200 ppm applied to foliage of wheat, inoculated one day after treatment, read-out: LEPTNO disease control.
Experiment [7] concerns Phytophthora infestans. Kind of experiment: whole plant or invertebrate. The note with it: Phytophthora infestans, in Solanum lycopersicum, foliar; for pest or weed control at 200 ppm: read-out: PHYTIN disease control, 200 ppm applied to foliage of tomato, inoculated one day after treatment.
[8] abbreviates: 100 ppm (footnote a), cucumber foliage.

With `N#Cc1cccc(Oc2ccc(CCNc3ncnc4scc(Cl)c34)cc2)n1` [Compound 32], the pest or weed control at 200 ppm in experiment [1] was in the range of 80 to 100%; in experiment [3] it was 80 to 100%; in experiment [4], 80 to 100%; in experiment [5], 50 to 79%; in experiment [6] it was 0 to 49%; in experiment [7], 50 to 79%. For the same molecule, the pest or weed control at 75 ppm in experiment [2] fell in the range of 50 to 79%.

For `CN(C)NC(=O)c1ccc(Oc2ccc(CCNc3ncnc4scc(Cl)c34)cc2)nc1` [Compound 33, 6-{4-[2-(5-Chlorothieno[2,3-d]pyrimidin-4-ylamino)ethyl]phenoxy}nicotinic acid N′,N′-dimethylhydrazide], the pest or weed control at 200 ppm in experiment [1] lay in the range of 80 to 100%; in experiment [3], 0 to 49%; in experiment [4] it was 80 to 100%; in experiment [5], 50 to 79%; in experiment [6], 0 to 49%; in experiment [7], 50 to 79%. In experiment [2], the pest or weed control at 75 ppm lay in the range of 0 to 49%.

On to `CO/N=C\c1ccc(Oc2ccc(CCNc3ncnc4scc(Cl)c34)cc2)nc1` [Compound 34, 6-{4-[2-(5-Chlorothieno[2,3-d]pyrimidin-4-ylamino)ethyl]phenoxy}pyridine-3-carbaldehyde O-methyloxime], for which the pest or weed control at 200 ppm in experiment [1] fell in the range of 80 to 100%; in experiment [3], 80 to 100%; in experiment [4], 80 to 100%; in experiment [5] it was 80 to 100%; in experiment [6] it was 0 to 49%; in experiment [7], 0 to 49%. Further, the pest or weed control at 75 ppm in experiment [2] was 50 to 79%.

Regarding `Fc1cccc(Oc2ccc(CCNc3ncnc4scc(Cl)c34)cc2)n1` [Compound 36], the pest or weed control at 200 ppm is 80 to 100% in experiment [1]; 80 to 100% in experiment [3]; 80 to 100% in experiment [4]; 50 to 79% in experiment [5]; 0 to 49% in experiment [6]; 0 to 49% in experiment [7]. Besides, the pest or weed control at 75 ppm in experiment [2] was 50 to 79%.

Regarding `Clc1cccc(Oc2ccc(CCNc3ncnc4scc(Cl)c34)cc2)n1` [Compound 37], the pest or weed control at 200 ppm in experiment [1] was in the range of 80 to 100%; in experiment [3], 80 to 100%; in experiment [4], 80 to 100%; in experiment [5], 80 to 100%; in experiment [6], 0 to 49%; in experiment [7] it was 0 to 49%. Moreover, the pest or weed control at 75 ppm in experiment [2] lay within 50 to 79%.

As to `Clc1csc2ncnc(NCCc3ccc(Oc4cnccn4)cc3)c12` [Compound 38], the pest or weed control at 200 ppm in experiment [1] was 80 to 100%; in experiment [3] it was 50 to 79%; in experiment [4] it was 50 to 79%; in experiment [5], 50 to 79%; in experiment [6], 0 to 49%; in experiment [7] it was 50 to 79%. The pest or weed control at 75 ppm in experiment [2] fell in the range of 50 to 79%.

Take `CC(=O)c1ccc(Oc2ccc(CCNc3ncnc4scc(Cl)c34)cc2)nc1` [Compound 39]: the pest or weed control at 200 ppm lay within 80 to 100% in experiment [1]; 50 to 79% in experiment [3]; 80 to 100% in experiment [4]; 0 to 49% in experiment [5]; 0 to 49% in experiment [6]; 80 to 100% in experiment [7]. Besides, the pest or weed control at 75 ppm in experiment [2] is 0 to 49%.

As to `N#Cc1ncc(Oc2ccc(CCNc3ncnc4scc(Cl)c34)cc2)cn1` [Compound 40], the pest or weed control at 200 ppm lay within 80 to 100% in experiment [1]; 50 to 79% in experiment [3]; 80 to 100% in experiment [4]; 0 to 49% in experiment [5]; 0 to 49% in experiment [6]; 80 to 100% in experiment [7]. The pest or weed control at 75 ppm in experiment [2] is 0 to 49%.

For the molecule `N#Cc1ccnc(Oc2ccc(CCNc3ncnc4scc(Cl)c34)cc2)n1` [Compound 41], the pest or weed control at 200 ppm in experiment [1] fell in the range of 80 to 100%; in experiment [3], 50 to 79%; in experiment [4], 80 to 100%; in experiment [5], 0 to 49%; in experiment [6], 0 to 49%; in experiment [7], 80 to 100%. The pest or weed control at 75 ppm in experiment [2] is 0 to 49%.

For `Cc1cc(Br)cnc1Oc1ccc(CCNc2ncnc3scc(Cl)c23)cc1` [Compound 42], the pest or weed control at 200 ppm in experiment [1] was 0 to 49%; in experiment [3], 0 to 49%; in experiment [4], 80 to 100%; in experiment [5], 0 to 49%; in experiment [6], 50 to 79%; in experiment [7] it was 0 to 49%. Besides, the pest or weed control at 75 ppm in experiment [2] was 80 to 100%.

`Clc1csc2ncnc(NCCc3ccc(Oc4cc(I)ccn4)cc3)c12` [Compound 43]: the pest or weed control at 200 ppm in experiment [1] lay in the range of 80 to 100%; in experiment [3], 80 to 100%; in experiment [4] it was 80 to 100%; in experiment [5], 50 to 79%; in experiment [6], 80 to 100%; in experiment [7], 0 to 49%. The pest or weed control at 75 ppm in experiment [2] fell in the range of 80 to 100%.

Regarding `FC(F)(F)COc1ccnc(Oc2ccc(CCNc3ncnc4scc(Cl)c34)cc2)n1` [Compound 44], the pest or weed control at 200 ppm in experiment [1] lay within 80 to 100%; in experiment [3], 50 to 79%; in experiment [4], 80 to 100%; in experiment [5], 0 to 49%; in experiment [6] it was 80 to 100%; in experiment [7], 50 to 79%. In addition, the pest or weed control at 75 ppm in experiment [2] fell in the range of 80 to 100%.

For the molecule `Clc1nccc(Oc2ccc(CCNc3ncnc4scc(Cl)c34)cc2)n1` [Compound 45], the pest or weed control at 200 ppm was in the range of 80 to 100% in experiment [1]; 0 to 49% in experiment [3]; 50 to 79% in experiment [4]; 0 to 49% in experiment [5]; 0 to 49% in experiment [6]; 0 to 49% in experiment [7]. Besides, the pest or weed control at 75 ppm in experiment [2] is 50 to 79%.

On to `CC(=O)c1cnc(Oc2ccc(CCNc3ncnc4scc(Cl)c34)cc2)s1` [Compound 46], for which the pest or weed control at 200 ppm was 80 to 100% in experiment [1]; 0 to 49% in experiment [3]; 50 to 79% in experiment [4]; 0 to 49% in experiment [5]; 0 to 49% in experiment [6]; 0 to 49% in experiment [7]. In addition, the pest or weed control at 75 ppm in experiment [2] fell in the range of 50 to 79%.

Consider `N#Cc1ccnc(Oc2ccc(CCNc3ncnc4scc(Br)c34)cc2)c1` [Compound 47], for which the pest or weed control at 8.3 ppm in experiment [1] (8.3 ppm (footnote c), wheat foliage) was in the range of 80 to 100%; in experiment [4] (read-out: PYRIOR disease control, 8.3 ppm (footnote c), rice foliage), 80 to 100%. Also, the pest or weed control at 75 ppm in experiment [2] lay in the range of 50 to 79%; in experiment [6] (75 ppm (footnote b), wheat foliage) it was 80 to 100%. Moreover, the pest or weed control at 100 ppm in experiment [3] (setting [8]) was in the range of 80 to 100%; in experiment [5] (setting [8]), 0 to 49%; in experiment [7] (read-out: PHYTIN disease control, 100 ppm (footnote a), tomato foliage) it was 0 to 49%.

In the case of `CO/N=C(\C)c1cnc(Oc2ccc(CCNc3ncnc4scc(Cl)c34)cc2)s1` [Compound 48], the pest or weed control at 200 ppm in experiment [1] lay in the range of 80 to 100%; in experiment [3], 80 to 100%; in experiment [4], 80 to 100%; in experiment [5], 50 to 79%; in experiment [6], 0 to 49%; in experiment [7] it was 80 to 100%. Besides, in experiment [2], the pest or weed control at 75 ppm was in the range of 50 to 79%.

As for `c1csc(Oc2ccc(CCNc3ncnc4sccc34)cc2)n1` [Compound 49], the pest or weed control at 200 ppm lay in the range of 80 to 100% in experiment [1]; 80 to 100% in experiment [3]; 80 to 100% in experiment [4]; 50 to 79% in experiment [5]; 50 to 79% in experiment [6]; 80 to 100% in experiment [7]. Also, the pest or weed control at 75 ppm in experiment [2] was in the range of 50 to 79%.

In the case of `Cc1cc(Oc2ccc(CCNc3ncnc4scc(Cl)c34)cc2)cnc1S(C)(=O)=O` [Compound 50], the pest or weed control at 200 ppm in experiment [1] lay in the range of 80 to 100%; in experiment [3], 0 to 49%; in experiment [4] it was 80 to 100%; in experiment [5], 50 to 79%; in experiment [6], 50 to 79%; in experiment [7], 80 to 100%. Also, in experiment [2], the pest or weed control at 75 ppm was in the range of 50 to 79%.

As to `Clc1cc(Br)cnc1Oc1ccc(CCNc2ncnc3scc(Cl)c23)cc1` [Compound 51], the pest or weed control at 200 ppm in experiment [1] was in the range of 80 to 100%; in experiment [3], 0 to 49%; in experiment [4], 80 to 100%; in experiment [5] it was 0 to 49%; in experiment [6], 0 to 49%; in experiment [7], 0 to 49%. In experiment [2], the pest or weed control at 75 ppm is 50 to 79%.

As to `CCc1ncnc(Oc2ccc(CCNc3ncnc4scc(Cl)c34)cc2)c1Cl` [Compound 52], the pest or weed control at 200 ppm in experiment [1] is 80 to 100%; in experiment [3], 50 to 79%; in experiment [4], 80 to 100%; in experiment [5] it was 50 to 79%; in experiment [6], 50 to 79%; in experiment [7] it was 0 to 49%. Besides, in experiment [2], the pest or weed control at 75 ppm is 80 to 100%.

The values above are taken from US7531482B2, “Thieno-pyrimidine compounds having fungicidal activity” (Dow AgroSciences LLC, priority 2005, dated 2009).
